For orientation: IC50 means the concentration that inhibits the measured activity by half.

Data set [1] has as its system hormone receptor positive breast cancer (MCF-7) cells. Nature of the data set: MTT cytotoxicity assay on MCF-7 cells. The following applies: for CC50: Homo sapiens, MCF7, 48 h, read-out: MCF-7 (LC50); for Selectivity Index MCF-7: LC50 of Vero cells divided by LC50 of MCF-7. As for the experimental part: (§1) The antiproliferative activity of the crude extracts and compounds isolated from C. glabrum and C. nelsonii were tested against heterogenous human epithelial colorectal adenocarcinoma (Caco-2) and hormone receptor positive breast cancer (MCF-7) cells using the MTT assay. The Vero African green monkey kidney cells were used as the non-cancerous cell line for comparison. Doxorubicin was used as the positive control.
The cytotoxic activity of extracts and isolated compounds was evaluated using the MTT assay against colorectal adenocarcinoma (Caco-2, ATCC® HTB-37™), breast adenocarcinoma (MCF-7, ATCC® HTB-22™), and non-cancerous monkey kidney cells (Vero, ATCC® CCL-81™). Cell culture and maintenance were carried out following standard protocols. […] Doxorubicin was used as a positive control, and DMSO as a negative control. Cell viability was determined by MTT reduction and absorbance was measured at 570 nm. LC50 values were calculated, and the selectivity index(SI) was obtained by dividing LC50 values of Vero cells by those of the cancer cell lines.
Background: Tetrazolium dyes change colour on reduction, which living cells bring about.

Data set [2] can be described thus: in vitro. The following applies: African green monkey (Vero) and human (Caco-2), Caco-2. How it is done: as §1
(§2) The cytotoxic activity of extracts and isolated compounds was evaluated using the MTT assay against colorectal adenocarcinoma (Caco-2, ATCC® HTB-37™), breast adenocarcinoma (MCF-7, ATCC® HTB-22™), and non-cancerous monkey kidney cells (Vero, ATCC® CCL-81™). Cell culture and maintenance were carried out following standard protocols. The cells were seeded in 96-well plates and exposed to varying concentrations of extracts (0.025–1 mg/mL) and compounds (0.2–200 µg/mL) for 48 h. Doxorubicin was used as a positive control, and DMSO as a negative control. Cell viability was determined by MTT reduction and absorbance was measured at 570 nm. LC50 values were calculated, and the selectivity index(SI) was obtained by dividing LC50 values of Vero cells by those of the cancer cell lines.

In data set [3] the test system is human epithelial colorectal adenocarcinoma (Caco-2) cells. Description: MTT cytotoxicity assay on Caco-2 cells. The following applies: for CC50: Homo sapiens, Caco-2, 48 h, read-out: Caco-2 (LC50). How it is done: as §1, §2
Data set [4] can be described thus: in vitro. As for the experimental part: as §1, §2
The subject of the next data set is pancreas-a (BXPC-3). The arrangement: method as in ref 50 = [50]; 50. Akim A. Biological Activities of Oryzanol, Stigmasterol and Microminutinin on Human Breast Cancer Cell-Line, MCF-7 Ph.D. Thesis University Putra Malaysia Serdang, Malaysia 2004. The following applies: cited from earlier work.
Another data set deals with lung-NCS (NCI-H460). The arrangement: method as in ref 50 = [50]; 50. Akim A. Biological Activities of Oryzanol, Stigmasterol and Microminutinin on Human Breast Cancer Cell-Line, MCF-7 Ph.D. Thesis University Putra Malaysia Serdang, Malaysia 2004. The following applies: cited from earlier work.
For another data set, the system named is leukemia (P388). Set-up: method as in ref 50 = [50]; 50. Akim A. Biological Activities of Oryzanol, Stigmasterol and Microminutinin on Human Breast Cancer Cell-Line, MCF-7 Ph.D. Thesis University Putra Malaysia Serdang, Malaysia 2004. The following applies: cited from earlier work.
The subject of another data set is tubulin. The arrangement: method as in PMID 12059907, PMID 10893310. The following applies: combretastatin A-1; read-out: Tubulin inhibition IC50; cited from earlier work.
A further data set concerns prostate (DU-145). Set-up: method as in ref 50 = [50]; 50. Akim A. Biological Activities of Oryzanol, Stigmasterol and Microminutinin on Human Breast Cancer Cell-Line, MCF-7 Ph.D. Thesis University Putra Malaysia Serdang, Malaysia 2004. The following applies: cited from earlier work.
A further data set has as its system colon (KM20L2). The arrangement: method as in ref 50 = [50]; 50. Akim A. Biological Activities of Oryzanol, Stigmasterol and Microminutinin on Human Breast Cancer Cell-Line, MCF-7 Ph.D. Thesis University Putra Malaysia Serdang, Malaysia 2004. The following applies: cited from earlier work.
Data set [5] deals with triple negative breast cancer HCC70 cells. Set-up: method as in doi:10.4314/ecajps.v11i2.44769. The following applies: stigmasterol; cited from earlier work.
A further data set concerns colon cancer cell Caco-2. Set-up: method as in doi:10.4314/ecajps.v11i2.44769. The following applies: stigmasterol; cited from earlier work.
The next data set relates to MCF-7. The following applies: cited from earlier work.
In data set [6] the test system is human colon carcinoma SW620 cell lines. The following applies: stigmasterol, in Table 2; cited from earlier work.
Data set [7] relates to gastric adenocarcinoma AGS cells. The following applies: cited from earlier work.
For data set [8], the system named is prostate cancer PC3 cells. The arrangement: method as in doi:10.18063/cp.v1i4.255, PMID 20614808, PMID 25355727, doi:10.1076/phbi.37.2.148.6082. The following applies: ferruginol; read-out: Literature report PC3 (IC50); cited from earlier work.
Data set [9] relates to human liver hepatocellular carcinoma HepG2 cells. Set-up: method as in doi:10.18063/cp.v1i4.255, PMID 20614808, PMID 25355727, doi:10.1076/phbi.37.2.148.6082. The following applies: ferruginol; read-out: Literature report HepG2 (IC50); cited from earlier work.
The test system of data set [10] is colon (COL-2) cancer cells. The arrangement: method as in doi:10.18063/cp.v1i4.255, PMID 20614808, PMID 25355727, doi:10.1076/phbi.37.2.148.6082. The following applies: ferruginol; cited from earlier work.
In data set [11] the test system is breast MDA-MB-231 cancer cell lines. The arrangement: method as in doi:10.4103/pm.pm_265_20. The following applies: royleanone; read-out: Literature report MDA-MB-231 IC50; cited from earlier work.
The subject of data set [12] is prostate cancer cells (LNCaP). Set-up: method as in ref 45 (ref 58). The following applies: royleanone; ref 45 (ref 58); read-out: Literature report LNCaP IC50; cited from earlier work.
For another data set, the system named is human colon HCT116. The arrangement: method as in doi:10.4103/pm.pm_265_20. The following applies: royleanone, result in words; cited from earlier work.
The mark [13] stands for this setting: African green monkey, Vero kidney cells (ATCC CCL-81), non-cancerous.

≈ marks a conversion by molar mass, not a printed value. Where two headings read alike, the source gives them in different places.

For the molecule `COc1cccc2c1C(=O)c1c(O)c3c(c(O)c1C2=O)C[C@@](O)(C(=O)CO)C[C@@H]3O[C@H]1C[C@H](N)[C@H](O)[C@H](C)O1` [Doxorubicin, reference compound], in data set [1], the CC50 stood at 3.1 µg/mL (≈ 5.7 µM) and the “Selectivity Index MCF-7” value worked out at 2.20. Further, the selectivity ratio at 48 h in the data set “in vitro [2]” was determined as 9.08. Besides, the CC50 in data set [3] stood at 0.76 µg/mL (≈ 1.4 µM). Also, in “in vitro [4]” (African green monkey), the CC50 at 48 h was 6.9 µg/mL (≈ 12.7 µM).

As for `COc1ccc(C=Cc2cc(OC)c(OC)c(OC)c2)c(OC2OC(CO)C(O)C(O)C2O)c1O` [Compound 5a, combretastatin A-1-2′-O-β-D-glucopyranoside], in [1], the CC50 came to 44.1 µg/mL (≈ 89.2 µM) and the “Selectivity Index MCF-7” value was 1.90. The same molecule displayed a CC50 at 48 h in “in vitro [4]” (setting [13]) of 83.8 µg/mL (≈ 169 µM).

With `COc1ccc(/C=C\c2cc(OC)c(OC)c(OC)c2)c(O)c1O` [Compound 4, 3,4,5-trimethoxy-2′,3′hydroxyl-4′methoxy-stilbene], the “BXPC-3 GI50” value in the data set with pancreas-a (BXPC-3) is recorded as 4.4 µg/mL. Moreover, the “NCI-H460 GI50” value with lung-NCS (NCI-H460) is reported as 0.74 µg/mL. Moreover, in [1], the CC50 was 72 µg/mL (≈ 217 µM) and the “Selectivity Index MCF-7” value is 0.210. In addition, the “P388 GI50” value in the data set with leukemia (P388) is 0.3 µg/mL. For the same molecule, the IC50 in the data set with tubulin was 1.1 µM. In the data set with prostate (DU-145), the “DU-145 GI50” value was 0.017 µg/mL. This molecule yielded a CC50 at 48 h in “in vitro [4]” of 15.3 µg/mL (≈ 46 µM). The “KM20L2 GI50” value with colon (KM20L2) is 0.061 µg/mL.

`CC[C@H](C=C[C@@H](C)[C@H]1CC[C@H]2[C@@H]3CC=C4C[C@@H](O)CC[C@]4(C)[C@H]3CC[C@]12C)C(C)C` [Compound 6, stigmasta-5,22-dien-3β-ol]: the concentration for half-maximal inhibition (IC50) in [5] was above 500 µM; in the data set on colon cancer cell Caco-2, 132 µM; with MCF-7 (stigmasterol, read-out: MCF-7 IC50) it was above 500 µM; in [6] it was 2.79 µM. The CC50 in [1] and in [3] was above 200 µg/mL each time. Moreover, the “Selectivity Index MCF-7” value in [1] was below 0.690. Besides, the selectivity ratio at 48 h in the data set “in vitro [2]” is below 0.69. Moreover, the CC50 at 48 h in “in vitro [4]” was 137 µg/mL (≈ 332 µM).

Regarding `CC(C)c1cc2c(cc1O)[C@@]1(C)CCCC(C)(C)[C@@H]1CC2` [Compound 1, 12-hydroxy-abieta-8,11,13-triene], the IC50 in [7] (ferruginol, read-out: Literature report AGS (IC50)) is 27 µM; in data set [8], 55 µM; in the data set with MCF-7 (ferruginol, read-out: Literature report MCF-7 (IC50)) it was 12 µM; in data set [9], 68.5 µM. Also, the values for the CC50 in [1] and in [3] were 48.4 µg/mL (≈ 169 µM) and 24.3 µg/mL (≈ 84.8 µM), respectively. Moreover, the “Selectivity Index Caco-2” value in data set [3] (Caco-2) is reported as 8.23 × 10^−6. Further, in “in vitro [4]” (African green monkey), the CC50 at 48 h worked out at 0.0002 µg/mL (≈ 0.000698 µM). Moreover, the “Literature report colon (COL-2) ED50” value in [10] is above 20 µg/mL.

For `CC(C)C1=C(O)C(=O)C2=C(CC[C@H]3C(C)(C)CCC[C@]23C)C1=O` [Compound 2, 12-hydroxy-8,12-abietadiene-11,14-dione], the IC50 is above 250 µM in data set [11]; 18 µM in [7] (royleanone, read-out: Literature report AGS IC50); 12.5 µM in [12]. For the same molecule, the CC50 in data set [1] and in [3] was above 200 µg/mL in each case. For the same molecule, in data set [1], the “Selectivity Index MCF-7” value is below 0.150. The selectivity ratio at 48 h in the data set “in vitro [2]” is below 0.15. Moreover, in the data set “in vitro [4]”, the CC50 at 48 h was 30.7 µg/mL (≈ 97 µM). In addition, in the data set on human colon HCT116, the “Literature report colon HCT116” value is “variable”.

On to `COc1ccc(CCc2cc(OC)c(OC)c(OC)c2)c(OC2OC(CO)C(O)C(O)C2O)c1O` [Compound 5b, combretastatin B-1-2′-O-β-D-glucopyranoside], for which, in data set [1], the CC50 came to 44.1 µg/mL (≈ 88.8 µM) and the “Selectivity Index MCF-7” value stood at 1.90. The same molecule registered a CC50 at 48 h in the data set “in vitro [4]” (setting [13]) of 83.8 µg/mL (≈ 169 µM).

Values taken from PMC12473540, “Cytotoxic Activity of Chemical Constituents of Clerodendrum glabrum and Combretum nelsonii Root Extracts Against Selected Cancer Cell Lines” (Plants, 2025).
